# Assay results: US20130143738A1, “HERBICIDAL COMPOSITION CONTAINING CERTAIN PYRIDINE CARBOXYLIC ACIDS AND (2,4-DICHLOROPHENOXY)ACETIC ACID” (DOW AGROSCIENCES LLC, priority 2011, published 2013)
# Read-outs that look alike come from different tables or passages of the source.
# Experiments:
# [1] = test system: LOLMU - Italian ryegrass (Lolium perenne L. ssp. multiflorum (Lam.) Husnot); conditions: 14 DAA, greenhouse, foliar
# Method: (§1) Seeds or nutlets of the desired test plant species were planted in a soil matrix prepared by mixing a sandy loam soil (28.6 percent silt, 18.8 percent clay, and 52.6 percent sand, with a pH of about 5.8 and an organic matter content of about 1.8 percent) and calcareous grit in an 80 to 20 ratio. The soil matrix was contained in plastic pots with a surface area of 84.6 cm^2 and a volume of 560 cubic centimeters (cm^3). […] The plants were grown for 7-31 days (d) in a greenhouse with an approximate 15 hour (h) photoperiod which was maintained at about 23-29° C. during the day and 22-28° C. during the night. Nutrients (Peters Excel® 15-5-15 5-Ca2-Mg) and water were added on a regular basis and supplemental lighting was provided with overhead metal halide 1000-Watt lamps as necessary. The plants were employed for testing when they reached the first, second, or third true leaf stage.
# (§2) Treatments consisted of the potassium (K^+) salt of 4-amino-3-chloro-6-(4-chloro-2-fluoro-3-methoxy-phenyl)pyridine-2-carboxylic acid formulated as an SL or the benzyl ester of 4-amino-3-chloro-6-(4-chloro-2-fluoro-3-methoxy-phenyl)pyridine-2-carboxylic acid as technical material, and 2,4-D dimethylamine (DMA) salt applied as Weedar® 64 EC alone and in combination. Forms of the pyridine carboxylic acid and 2,4-D were applied on an acid equivalent basis.
# (§3) For treatments comprised of formulated compounds, measured amounts of compounds were placed individually in 25 mL glass vials and diluted in a volume of 1.5% (v/v) Agri-dex® crop oil concentrated to obtain 6× stock solutions. […] Application solutions were prepared by adding an appropriate amount of each stock solution (typically 2 mL) and diluted to the appropriate final concentrations with the addition of an appropriate amount of an aqueous mixture of 1.5% (v/v) crop oil concentrate and an appropriate amount of water so that the final spray solutions contained 1.25+/−0.05% (v/v) crop oil concentrate.
# (§4) For treatments comprised of formulated and technical compounds, weighed amounts of the technical materials were placed individually in 25 mL glass vials and dissolved in a volume of 97:3 v/v acetone/DMSO to obtain 6× stock solutions, and measured amounts of the formulated compounds were placed individually in 25 mL glass vials and diluted in a volume of 1.5% (v/v) crop oil concentrate to obtain 6× stock solutions. […] Application solutions were prepared by adding an appropriate amount of each stock solution (eg, 2 mL) and diluted to the appropriate final concentrations with the addition of an appropriate amount of an aqueous mixture of 1.5% (v/v) crop oil concentrate and an appropriate amount of water so that the final spray solutions contained 1.25% (v/v) crop oil concentrate. The final acetone and DMSO concentrations of the application solutions containing technical material were 16.2% and 0.5%, respectively.
# (§5) All stock solutions and applications solutions were visually inspected for compound compatibility prior to application. Compound requirements are based upon a 12 mL application volume at a rate of 187 liters per hectare (L/ha). Application solutions were applied to the plant material with an overhead Mandel track sprayer equipped with 8002E nozzles calibrated to deliver 187 L/ha over an application area of 0.503 square meters (m^2) at a spray height of 18 to 20 inches above the average plant canopy height. Control plants were sprayed in the same manner with the solvent blank.
# (§6) The treated plants and control plants were placed in a greenhouse as described above and watered by sub-irrigation to prevent wash-off of the test compounds. After approximately 2 weeks, the condition of the test plants as compared with that of the untreated plants was determined visually and scored on a scale of 0 to 100 percent where 0 corresponds to no injury and 100 corresponds to complete kill.
# [2] = test system: ELEIN - goosegrass (Eleusine indica (L.) Gaertn.); conditions: 14 DAA, greenhouse, foliar
# Method: as §1, §2, §3, §4, §5, §6
# [3] = test system: PANDI - fall panicum (Panicum dichotomiflorum Michx.); test: Greenhouse evaluation of postemergence herbicidal activity, foliar treatment, PANDI; format: in vivo; conditions: 16 DAA
# Excerpt: Seeds or nutlets of the desired test plant species were planted in a soil matrix prepared by mixing a sandy loam soil (28.6 percent silt, 18.8 percent clay, and 52.6 percent sand, with a pH of about 5.8 and an organic matter content of about 1.8 percent) and calcareous grit in an 80 to 20 ratio. The soil matrix was contained in plastic pots with a surface area of 84.6 cm^2 and a volume of 560 cubic centimeters (cm^3). When required to ensure good germination and healthy plants, a fungicide treatment and/or other chemical or physical treatment was applied. The plants were grown for 7-31 days (d) in a greenhouse with an approximate 15 hour (h) photoperiod which was maintained at about 23-29° C. during the day and 22-28° C. during the night. Nutrients (Peters Excel® 15-5-15 5-Ca2-Mg) and water were added on a regular basis and supplemental lighting was provided with overhead metal halide 1000-Watt lamps as necessary. The plants were employed for testing when they reached the first, second, or third true leaf stage.
# Treatment requirements were calculated based upon the rates being tested, the concentration of active ingredient or acid equivalent in the formulation, and a 12 mL application volume at a rate of 187 L/ha.
# as §2, §3
# For treatments comprised of formulated and technical compounds, weighed amounts of the technical materials were placed individually in 25 mL glass vials and dissolved in a volume of 97:3 v/v acetone/DMSO to obtain 6× stock solutions, and measured amounts of the formulated compounds were placed individually in 25 mL glass vials and diluted in a volume of 1.5% (v/v) crop oil concentrate to obtain 6× stock solutions. […]
# [4] = test system: MEOPA - escoba blanca (Melochia parviflora); test: Field evaluation of postemergence herbicidal activity of mixtures in range and pasture (Colombia); format: in vivo; conditions: 14 DAA
# Method: Field trials were conducted in pastures in Colombia using standard herbicide small plot research methodology. Plot size was typical for small plot research, varying from 2 meters (m) wide by 6 m long. There were 4 replicates per treatment. Soil type ranged from medium to heavy soil texture. Perennial pastures were sown by hand direct dry seeding as per normal local cultural practices. The pastures were grown using normal cultural practices for fertilization and maintenance to ensure good growth of the pastures and the weeds.
# Treatments were applied by backpack sprayer using either compressed air or carbon dioxide (CO2), at spray pressures from […]. Spray tips were typically Flat Fan Teejet nozzles, such as TJ8003. Spray volumes used were 400 liters per hectare (L/ha). MEOPA plant size at application varied from 70 to 80 centimeters (cm) tall active growth at flowering stage.
# For each treatment, the appropriate formulated product amount to treat the plot area, to achieve the desired application rate, based on unit area of application (hectare), was calculated, measured, and mixed in water prior to applying with the backpack sprayer. Treatments were rated as compared to the untreated control plots. 2,4-D was used as Invesamina 480 SL®. Compound I was formulated as a 10% weight percent active ingredient (wt ai %—100 grams ai per L (g ai/L); 95.94 g ae/L) suspension concentrate (SC) of the corresponding methyl ester.
# For both Example 1 and Example 2, the Colby equation was used to determine the herbicidal effects expected from the mixtures (Colby, S. R. Calculation of the synergistic and antagonistic response of herbicide combinations. Weeds 1967, 15, 20-22.).
# The following equation was used to calculate the expected activity of mixtures containing two active ingredients, A and B:
# A=observed efficacy of active ingredient A at the same concentration as used in the mixture.
# B=observed efficacy of active ingredient B at the same concentration as used in the mixture.
# [5] = 2,4-D dimethyl amine 52.5 g ae/ha alone
# [6] = 2,4-D dimethyl amine 105 g ae/ha alone
# [7] = potassium salt 3.75 g ae/ha alone
smiles,measurement,setting,value
"CNC.O=C(O)COc1ccc(Cl)cc1Cl [2,4-D (Dimethyl Amine), 2,4-D dimethylamine (DMA) salt]",LOLMU (% Control) Obs,[1]; [5],0%
same,LOLMU (% Control) Obs,[1]; [6],0%
same,ELEIN (% Control) Obs,[2]; [5],0%
same,ELEIN (% Control) Obs,[2]; [6],0%
same,PANDI (% Control) Obs,[3]; [5],0%
same,PANDI (% Control) Obs,[3]; [6],0%
same,PANDI (% Control) Obs,"[3]; 2,4-D dimethyl amine 210 g ae/ha alone",0%
"O=C(O)COc1ccc(Cl)cc1Cl [2,4-D, (2,4-dichlorophenoxy)acetic acid]",MEOPA (% Control) Obs,"[4]; 2,4-D 480 g ae/ha alone",3.8%
"COc1c(Cl)ccc(-c2cc(N)c(Cl)c(C(=O)OCc3ccccc3)n2)c1F [Pyridine Carboxylic Acid (Benzyl Ester), benzyl ester of 4-amino-3-chloro-6-(4-chloro-2-fluoro-3-methoxy-phenyl)pyridine-2-carboxylic acid]",ELEIN (% Control) Obs,[2]; benzyl ester 3.75 g ae/ha alone,0%
same,ELEIN (% Control) Obs,[2]; benzyl ester 7.5 g ae/ha alone,25%
"COC(=O)c1nc(-c2ccc(Cl)c(OC)c2F)cc(N)c1Cl [Pyridine Carboxylic Acid (Methyl Ester), halauxifen-methyl]",MEOPA (% Control) Obs,[4]; methyl ester 17.5 g ae/ha alone,48.5%
same,MEOPA (% Control) Obs,[4]; methyl ester 35 g ae/ha alone,63.1%
COc1c(Cl)ccc(-c2cc(N)c(Cl)c(C(=O)[O-])n2)c1F.[K+] [potassium (K^+) salt of 4-amino-3-chloro-6-(4-chloro-2-fluoro-3-methoxy-phenyl)pyridine-2-carboxylic acid],LOLMU (% Control) Obs,[1]; [7],15%
same,LOLMU (% Control) Obs,[1]; potassium salt 7.5 g ae/ha alone,35%
same,PANDI (% Control) Obs,[3]; [7],75%
